# Reference: US20070254931A1, “Thiazole Derivatives Having Vap-1 Inhibitory Activity” (Astellas Pharma Inc., priority 2004, published 2007)
# Structures can show the parent of a compound that is named as a salt.
# Molecular target: T1, Human plasma SSAO (Homo sapiens, UniProt Q16853)
# T1 construct: The enzyme suspension prepared from blood plasma was pre-incubated with a control compound; from tissue; host or cells: human blood plasma
# T1 sequence (Q16853 27-763 limits assumed): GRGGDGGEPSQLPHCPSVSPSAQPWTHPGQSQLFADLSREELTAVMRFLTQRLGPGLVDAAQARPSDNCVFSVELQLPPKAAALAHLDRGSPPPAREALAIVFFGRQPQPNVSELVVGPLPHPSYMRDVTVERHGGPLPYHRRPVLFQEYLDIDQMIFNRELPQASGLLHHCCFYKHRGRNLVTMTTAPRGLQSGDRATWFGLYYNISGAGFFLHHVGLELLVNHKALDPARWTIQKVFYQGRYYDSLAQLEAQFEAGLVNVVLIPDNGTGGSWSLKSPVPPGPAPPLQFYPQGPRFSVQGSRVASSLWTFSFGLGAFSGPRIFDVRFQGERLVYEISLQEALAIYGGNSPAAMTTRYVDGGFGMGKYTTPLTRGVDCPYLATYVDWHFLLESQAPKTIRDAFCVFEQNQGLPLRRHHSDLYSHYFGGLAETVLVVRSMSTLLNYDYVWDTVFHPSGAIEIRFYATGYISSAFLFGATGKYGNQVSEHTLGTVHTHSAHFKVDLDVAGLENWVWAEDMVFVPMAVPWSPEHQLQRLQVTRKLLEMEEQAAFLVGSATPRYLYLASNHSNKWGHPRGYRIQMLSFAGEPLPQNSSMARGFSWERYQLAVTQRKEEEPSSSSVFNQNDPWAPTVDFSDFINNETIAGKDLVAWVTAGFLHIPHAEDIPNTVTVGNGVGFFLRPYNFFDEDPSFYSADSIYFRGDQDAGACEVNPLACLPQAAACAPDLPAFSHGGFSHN
# Assay: VAP-1 enzyme (SSAO) activity in human plasma, radiochemical-enzyme assay with 14C-benzylamine
# Type: biochemical
# Details: human plasma enzyme suspension; pre-incubation 30 min at room temperature; 14C-benzylamine 2×10^−5 mol/l, 37° C., 1 hour; read-out: Inhibitory effect (IC50 values, μM) Human plasma SSAO
# Description: VAP-1 enzyme (SSAO) activity in human plasma was determined by a radiochemical-enzyme assay using ^14C-benzylamine as an artificial substrate. The enzyme suspension prepared from blood plasma was pre-incubated with a control compound (Reference Example 1) in 96-well microplate at room temperature for 30 min. The enzyme suspension was then incubated with ^14C-benzylamine (2×10^−5 mol/l final concentration) in a final volume of 50 μl at 37° C. for 1 hour. The enzyme reaction was terminated by adding 2 mol/l (50 μl) citric acid. The oxidized products were directly extracted into a 200 μl toluene scintillator, and its radioactivity was measured by a scintillation spectrometer. Inhibition activity was expressed as IC50 (μmol/l) value.
# Test compounds (i.e., the present compounds) inhibited the enzyme activity of human plasma SSAO in comparison with the control compound as shown in Table 1.
row,SMILES,IC50
1,"CC(=O)Nc1nc(CCc2ccc(NC(=N)N)cc2)c(Cc2ccc(S(N)(=O)=O)cc2)s1 [Production Example 3, N-{4-[2-(4-{[amino(imino)methyl]amino}phenyl)ethyl]-5-[4-(aminosulfonyl)benzyl]-1,3-thiazol-2-yl}acetamide hydrochloride]",0.0045 µM
2,"CC(=O)Nc1nc(CCc2ccc(NC(=N)N)cc2)c(Cc2cccc(S(C)(=O)=O)c2)s1 [Production Example 1, N-{4-[2-(4-{[amino(imino)methyl]amino}phenyl)ethyl]-5-[3-(methylsulfonyl)benzyl]-1,3-thiazol-2-yl}acetamide]",0.016 µM
3,"CC(=O)Nc1nc(CCc2ccc(CC(=O)NC(=N)N)cc2)cs1 [Production Example 9, 2-(4-{2-[2-(acetylamino)-1,3-thiazol-4-yl]ethyl}phenyl)-N-[amino(imino)methyl]acetamide]",0.0026 µM
4,"CC(=O)Nc1nc(CCc2ccc(NC(=N)N)cc2)c(CN2CC[C@@H](C(=O)N(C)C)C2)s1 [Production Example 12, (3R)-1-({2-(acetylamino)-4-[2-(4-{[amino(imino)methyl]amino}phenyl)ethyl]-1,3-thiazol-5-yl}methyl)-N,N-dimethyl-3-pyrrolidinecarboxamide dihydrochloride]",0.019 µM
5,"CC(=O)Nc1nc(-c2ccc(CCCCNC(=N)N)cc2)cs1 [Production Example 7, N-{4-[4-(4-{[amino(imino)methyl]amino}butyl)phenyl]-1,3-thiazol-2-yl}acetamide hydrochloride]",0.015 µM

# Next, values leading:
row,IC50,SMILES
1,0.012 µM,"CC(=O)Nc1nc(CCc2ccc(NC(=N)N)cc2)c(CN(C)C(=O)c2ccc(S(C)(=O)=O)cc2)s1 [Production Example 16, N-({2-(acetylamino)-4-[2-(4-{[amino(imino)methyl]amino}phenyl)ethyl]-1,3-thiazol-5-yl}methyl)-N-methyl-4-(methylsulfonyl)benzamide hydrochloride]"
2,0.014 µM,"CC(=O)Nc1nc(CCc2ccc(NC(=N)N)cc2)c(CN2CC[C@H](C(=O)N(C)C)C2)s1 [Production Example 14, (3S)-1-({2-(acetylamino)-4-[2-(4-{[amino(imino)methyl]amino}phenyl)ethyl]-1,3-thiazol-5-yl}methyl)-N,N-dimethyl-3-pyrrolidinecarboxamide dihydrochloride]"
3,0.0057 µM,"CC(=O)Nc1nc(CCc2ccc(CCNC(=N)N)cc2)cs1 [Production Example 25, N-(4-{2-[4-(2-{[amino(imino)methyl]amino}ethyl)phenyl]ethyl}-1,3-thiazol-2-yl)acetamide]"
4,0.033 µM,"CC(=O)Nc1nc(CCc2ccc(NC(=N)N)cc2)cs1 [Reference Example 1, N-{4-[2-(4-{[amino(imino)methyl]amino}phenyl)ethyl]-1,3-thiazol-2-yl}acetamide, reference compound]"
5,0.032 µM,"CC(=O)Nc1nc(CCc2ccc(NC(=N)N)cc2)c(CN(C)C(=O)c2ccc([N+](=O)[O-])cc2)s1 [Production Example 19, N-({2-(acetylamino)-4-[2-(4-{[amino(imino)methyl]amino}phenyl)ethyl]-1,3-thiazol-5-yl}methyl)-N-methyl-4-nitrobenzamide hydrochloride]"

# System: not given
# Assay: not given
# Details: not given
row,melting point,SMILES
1,217 to 218.5 °C,CC(=O)Nc1nc(-c2ccc(CCNC(=N)N)cc2)c(Cc2ccc(S(C)(=O)=O)cc2)s1.Cl
2,212 to 213.5 °C,"CC(=O)Nc1nc(CCc2ccc(NC(=N)N)cc2)c(Cc2cccc(S(C)(=O)=O)c2)s1 [Production Example 1, N-{4-[2-(4-{[amino(imino)methyl]amino}phenyl)ethyl]-5-[3-(methylsulfonyl)benzyl]-1,3-thiazol-2-yl}acetamide]"
